Measured values reported in publication PMC10222328 (Pharmaceuticals, 2023).

Experiment: Acute oral toxicity evaluation in rats
Format: in vivo, Wistar albino rats
Conditions: single oral dose 10 mg/kg, after 14 days, (absolute organ weight × 100%)/body weight
Method: Healthy male rats (n = 24, three rats per group, body weight 180–200 g) were used for conducting an acute oral toxicity study. Animals were divided into the following groups: a control group that included rats that received a single dose of 1% DMSO and experimental groups that involved rats that received compounds 1–7 in the single dose of 10 mg/kg.
After oral administration of the aforementioned agents, rats were kept in single cages and monitored during 14 days. Food and water intake, as well as body weight, were measured daily. All the behavioral changes and any signs of toxicity were monitored daily during 2-week protocol (fur and skin, eyes, salivation, respiration, urination (color), faeces consistency, somatomotor activity, and other alterations in behavior pattern). After accomplishing 14 days, animals were sacrificed and organ weight (liver, kidney, stomach, and heart) was recorded. Relative organ weight was calculated as follows:(absolute organ weight × 100%)/body weight of rat on the day of sacrifice.(1)

Row | SMILES | Relative organ weight, heart | Relative organ weight, kidney | Relative organ weight, liver | Relative organ weight, stomach
1 | COc1ccc2cc([C@H](C)C(=O)NC(=S)Nc3ccc(F)cc3)ccc2c1 [Compound 1, (S)-N-((4-fluorophenyl)carbamothioyl)-2-(6-methoxynaphthalen-2-yl)propanamide] | 0.32 ± 0.02 | 0.31 ± 0.03 | 2.73 ± 0.24 | 0.54 ± 0.05
2 | COc1ccc(NC(=S)NC(=O)[C@@H](C)c2ccc3cc(OC)ccc3c2)cc1 [Compound 2, (S)-2-(6-methoxynaphthalen-2-yl)-N-((4-methoxyphenyl)carbamothioyl)propanamide] | 0.33 ± 0.04 | 0.34 ± 0.04 | 3.07 ± 0.38 | 0.57 ± 0.04
3 | CCOc1ccc(NC(=S)NC(=O)[C@@H](C)c2ccc3cc(OC)ccc3c2)cc1 [Compound 3, (S)-N-((4-ethoxyphenyl)carbamothioyl)-2-(6-methoxynaphthalen-2-yl)propanamide] | 0.31 ± 0.03 | 0.32 ± 0.06 | 2.85 ± 0.17 | 0.50 ± 0.05
4 | COc1cccc(NC(=S)NC(=O)[C@@H](C)c2ccc3cc(OC)ccc3c2)c1 [Compound 4, (S)-2-(6-methoxynaphthalen-2-yl)-N-((3-methoxyphenyl)carbamothioyl)propanamide] | 0.30 ± 0.03 | 0.33 ± 0.07 | 2.45 ± 0.15 | 0.50 ± 0.05
5 | COc1ccc2cc([C@H](C)C(=O)NC(=S)Nc3ccc(C(C)=O)cc3)ccc2c1 [Compound 5, (S)-N-((4-acetylphenyl)carbamothioyl)-2-(6-methoxynaphthalen-2-yl)propanamide] | 0.31 ± 0.03 | 0.30 ± 0.03 | 2.97 ± 0.33 | 0.53 ± 0.04
6 | CCOC(=O)C(Cc1ccccc1)NC(=S)NC(=O)C(C)c1ccc2cc(OC)ccc2c1 [Compound 6, Ethyl(((S)-2-(6-methoxynaphthalen-2-yl)propanoyl)carbamothioyl)-L-phenylalaninate] | 0.34 ± 0.02 | 0.35 ± 0.05 | 3.01 ± 0.29 | 0.55 ± 0.03
7 | COC(=O)[C@H](Cc1cn(C)c2ccccc12)NC(=S)NC(=O)[C@@H](C)c1ccc2cc(OC)ccc2c1 [Compound 7, Methyl-N^α-(((S)-2-(6-methoxynaphthalen-2-yl)propanoyl)carbamothioyl)-1-methyltryptophanate] | 0.33 ± 0.03 | 0.29 ± 0.03 | 2.64 ± 0.46 | 0.50 ± 0.04
